Key:
[1] = biological target: Nef interaction with CD80 (Human immunodeficiency virus type 1 group M subtype B, UniProt P04601); assay: ELISA primary screen: Nef binding to CD80 cytosolic peptide; parameters: species or system HIV-1; settings: CD80 pIC50 value, inhibition of Nef-CD80 binding
Method: (§1) Standard ELISA assay was used to validate the compounds as a primary screen. The basic steps of the assay are outlined in FIG. 1. The cytosolic peptides CD80, CD86 and CD74 are coated on a microplate, while CD80 and CD86 has higher binding capacity with the Nef protein, CD74 is non-specific peptide and is a peptide negative control for Nef binding. The coated plates are incubated overnight at 4° C. The plates were washed 5 times with PBS (0.02% Tween-20) before every step. After washing, the wells were blocked with 5% blotto and incubated at RT with shaking (650 rpm). The plates were washed 5 times with PBS (0.02%-tween20) after every step. Primary antibody […] anti-Nef raised in rabbit dissolved in 2.5% blotto (1:1000) were added and incubated on shaker for 1 hour at RT. Plate was washed and 100 μL anti rabbit raised in donkey dissolved in 2.5% blotto (1:11000) was added and incubated at RT for 45 min. Plate was washed with PBS and TMB substrate solution was added and incubated in dark for 5-10 min. The reaction was stopped with 1N H2SO4 and the absorbance was measured at 450 nm. Positive control (Nef) and Negative control (No peptide with Nef) were analysed for highest binding of Nef with peptide. The absorbance of the plates was measured at 450 nm.
(§2) A throughput screen was performed to pull out the actives. Standard quality control metrics like Z′ were used to qualify plates and Z′ scores were used to identify actives. The IC50 value of the compounds were further determined to evaluate the efficacy of the test compounds.
(§3) The IC50 values of the compounds have been illustrated in Table 1. […] Actives predominantly belong to compounds from Formula I, II and III with IC50s in nano or subnanomolar ranges were selected. Selected compounds were then screened in the cell-based assays systems.

[2] = tested on: Nef mediated internalization of surface CD80/86 in B/monocyte cells; assay: Cell-based phenotypic screen for downregulation of surface CD80/86 (flow cytometry); settings: 100 μM, pre-exposed 2 hrs, then infected with non-replicative retrovirus containing NEF; flow cytometry after 48-72 hrs
Text: CD80 and CD86 are two major co-stimulatory cell surface proteins that are present on antigen presenting cells (APCs) and provide a co-stimulatory signal necessary for activation and survival of the naïve T cells. Both these proteins get down regulated during HIV infection via a Nef mediated pathway. It has been speculated that Nef ability to reduce CD80 and CD86 surface expression in infected cells can prevent the activation of naive T cells, necessary for an efficient recognition and elimination of the target cells. FIG. 2 illustrates that in the presence of the compounds of Formula I, Formula II or Formula III, the binding of Nef with CD80 and CD86 is inhibited thus increasing their expression. The increased expression would activate naïve T cells and aid in eliminating the infection.
Briefly monocyte/B cell lines were either delivered with Nef protein or exposed to replication deficient retrovirus and the levels of surface CD80/86 was evaluated by flow cytometry with/without compound treatment. The compounds were qualified based on the ability to reverse the down regulation of CD80/86 caused by the Nef protein. Similar quality checks were used in the secondary screen as in primary screen. Briefly, B/monocyte cells were preexposed to 100 μM of the 4 compounds for 2 hrs and then infected with non-replicative retrovirus containing NEF. The internalization of surface receptors were measured by flow cytometry after optimal infection (48-72 hrs).

[3] = tested on: Nef mediated T cell inactivation; assay: T cell activation assay (IL-2 release, B-cell line co-cultured with T cell line); type: cell-based; settings: 100 μM, B-cell line pre-exposed 1 hr, Nef via protein delivery agent, IL-2 by ELISA after 3 hrs
Text: The appropriate cell system was designed to mimic the biology of the said interactions. FIG. 4(A) represents the principle behind the activation of naïve T cells by the antigen presenting cells (APC), including dendritic cells, B cells, monocytes, macrophages. The activation is based on CD80/86 co-stimulation along with CD3 activation by major histocompatibility complex (MHC) as evidenced by an increase in IL-2 release from the activated T cells.
Representative compounds from the Formula I, II and III were tested in the functional T cell assay and the results are as presented in FIG. 5. B-cell line was pre-exposed to 100 μM of the 4 compounds for 1 hr. The cells were washed and then Nef was introduced via protein delivery agent. The cells were washed again and co-cultured with T cell line. The IL-2 release (as an indicator of activation) was measured by ELISA after 3 hrs. Addition of Nef reduced the T cell activation by more than 50%.

[4] = biological target: Nef interaction with CD86 (Human immunodeficiency virus type 1 group M subtype B, UniProt P04601); assay: ELISA primary screen: Nef binding to CD86 cytosolic peptide; parameters: species or system HIV-1
Method: as §1, §2, §3

SMILES: CCOC(=O)c1ccc(NC(=O)C(C)(C)Oc2ccc(Cl)cc2)cc1 [III2c, Ethyl 4-[2-(4-chlorophenoxy)-2-methylpropanamido]benzoate]
- IC50 [1]: 1.51 nM

SMILES: O=C(Nc1ccccc1F)Oc1ccc2ccccc2c1 [II3, Naphthalen-2-yl (2-fluorophenyl)carbamate]
- reversal of Nef mediated internalization of CD80/86 [2]: reversal of Nef mediated internalization of CD80/86
- reversal of Nef mediated inactivation of T cells (IL-2 release) [3]: reversed the Nef mediated inactivation
- IC50 [4]: 0.0126 nM

SMILES: FC(F)(F)c1ccc(-c2cnc(N3CCOCC3)nc2)cc1 [Compound I3b, 4-[5-(4-(Trifluoromethyl)phenyl)pyrimidin-2-yl]morpholine]
- IC50 [1]: 0.129 nM
- reversal of Nef mediated internalization of CD80/86 [2]: reversal of Nef mediated internalization of CD80/86
- reversal of Nef mediated inactivation of T cells (IL-2 release) [3]: reversed the Nef mediated inactivation
- IC50 [4]: 1.62 nM

SMILES: Cc1cc(C)cc(OCC(=O)Nc2ccc(C(=O)O)c(O)c2)c1 [III2a, 4-[2-(3,5-dimethylphenoxy)acetamido]-2-hydroxybenzoic acid]
- IC50 [1]: 0.00447 nM
- reversal of Nef mediated internalization of CD80/86 [2]: reversal of Nef mediated internalization of CD80/86
- reversal of Nef mediated inactivation of T cells (IL-2 release) [3]: reversed the Nef mediated inactivation

SMILES: CN(C)c1ncc(-c2ccccc2)cn1 [Compound I3a, N,N-Dimethyl-5-phenylpyrimidin-2-amine]
- IC50 [1]: 0.011 nM

SMILES: CC(Oc1ccccc1)C(=O)Nc1ccc(C(=O)O)cc1 (stereo not shown) [III2b, 4-(2-Phenoxypropanamido)benzoic acid]
- IC50 [1]: 1.12 nM

SMILES: Cc1ccc(OC(=O)Nc2ccc(Cc3ccc(NC(=O)Oc4ccc(C)cc4)cc3)cc2)cc1 [II2d, Di-p-tolyl [methylenebis(4,1-phenylene)]dicarbamate]
- IC50 [1]: 10.5 nM
- IC50 [4]: 513 nM

SMILES: O=C(Oc1cccc(-c2nnco2)c1)N(c1ccccc1)c1ccccc1 [II5, 3-[(1,3,4-oxadiazol-2-yl)phenyl]diphenylcarbamate]
- IC50 [1]: 0.00275 nM

SMILES: Cc1ccc(S(=O)(=O)NNC(=O)c2ccccc2OC(=O)Nc2ccccc2)cc1 [II7, 2-[(2-Tosylhydrazine-1-carbonyl)phenyl]phenylcarbamate]
- IC50 [1]: 0.0871 nM

SMILES: CCCOC(=O)c1ccc(NC(=O)COc2cccc(C)c2)cc1 [III1e, Propyl 4-[2-(m-tolyloxy)acetamido]benzoate]
- IC50 [1]: 2.34 nM

SMILES: O=C(Nc1ccc(Cl)c(Cl)c1)Nc1cc([N+](=O)[O-])ccc1OC(=O)Nc1ccc(Cl)c(Cl)c1 [II4, 2-[3-(3,4-dichlorophenyl)ureido]-4-nitrophenyl (3,4-dichlorophenyl)carbamate]
- IC50 [1]: 0.0275 nM
- IC50 [4]: 0.275 nM

SMILES: O=C(Oc1ccccc1)n1c(=S)oc2ccccc21 [II1, Phenyl 2-thioxobenzo[d]oxazole-3(2H)-carboxylate]
- IC50 [1]: 0.0912 nM

SMILES: Cc1cc(C)n(-c2ncc(-c3ccc([N+](=O)[O-])cc3)cn2)n1 [Compound I1a, 2-(3,5-Dimethyl-1H-pyrazol-1-yl)-5-(4-nitrophenyl)pyrimidine]
- IC50 [1]: 0.00234 nM
